# Reference: patent publication US5403824A, “Methods for the treatment of osteoporosis” (The Procter & Gamble Company, priority 1993, dated 1995)
# Square brackets hold non-standard residues; d marks the D form. Peptide text beside a SMILES is read from it. * marks the point of attachment. tBu = CC(C)(C)*
# How the values were obtained:
# [1] = test system: Rat osteoblast-like cells (ROS 17/2.8); assay: [3H]-thymidine incorporation, proliferation of osteoblast-like cells; format: cell-based; conditions: ROS 17/2.8, 18 hrs incubation, 2 hrs pulse
# Excerpt: Stimulation of osteoblast-like cell proliferation can be measured according to several art-recognized in vitro models. One such model is described in European Patent Publication No. 384,731, by Rodan et al, published Aug. 29, 1990, which is incorporated herein by reference. (Applicants have modified this method by reducing regent volumes to one-quarter those described and by utilizing Dulbecco's Modified eagle's Medium (DMEM).) In this model, proliferation (division) of, for example, rat osteoblast-like cells (rat osteosarcoma (ROS) cells, rat calvaria cells, etc.) is observed by measuring the amount of radiolabeled thymidine ([^3 H]thymidine) incorporated by these cells. ([^3 H]thymidine is "incorporated" by cellular DNA being synthesized as a result of cell proliferation.) The greater the level of [^3 H]thymidine measured, the greater the amount of proliferation of the osteoblast cells.
# More specifically, a test sample (comprised of a test compound and osteoblast-like cells) and a control sample (comprised of only osteoblast-like cells) are pulsed with [^3 H]thymidine. The amount of [^3 H]thymidine incorporated by the cells is measured using a direct beta counter.
# Rat osteoblast-like cells (ROS 17/2.8) are plated at 4×10^3 cells/well in a 96-well plate in Dulbecco's Modified eagle's Medium supplemented with 2% (v/v) Fetal Bovine Serum, and incubated for 6 hrs. Control (serum-free) medium and test medium (test sample and serum-free medium) are then added to the cells and this combination is incubated for 18 hrs. The cells are then pulsed with [^3 H]-thymidine (1 μCi/well) for 2 hrs. The medium is then removed, the cells are harvested onto glass fibre filters and the amount of [^3 H]-thymidine (counts per minute per well) incorporated into DNA is then determined using a direct beta counter. Values for control groups are then compared to values for treated groups.
# (§1) The compound H-Tyr-D-Ala-Gly-Phe-D-Leu-OH ("DADLE") is screened to determine whether it stimulates proliferation of osteoblast-like cells. […] The medium is then removed, the cells are harvested onto glass fibre filters, and the amount of ^3 H-thymidine (counts per minute per well) incorporated into DNA is determined using a direct beta counter. […]
# as §1, with “Tyr-D-Cys(S-t-butylthioether)-Gly-Phe-Leu-Thr(O-t-butylether) ("BUBUC")” for “H-Tyr-D-Ala-Gly-Phe-D-Leu-OH ("DADLE")”
# [2] = test system: human subject with postmenopausal osteoporosis or low bone mass; assay: treatment of human subject with osteoporosis, vertebral density by dual-energy photon absorptiometry; format: in vivo
# Method: A human subject weighing about 60 kg (132 lbs), suffering from postmenopausal osteoporosis, is treated by a method of this invention. Specifically, for two years, the enkephalin-degrading enzyme inhibitor DL-3-mercapto-2-benzylpropanoylglycine is administered orally, in a cyclical regimen, where each cycle consists of an active period of 28 days during which a tablet containing 160 mg of said inhibitor is administered each day, followed by a non-active period of 28 days during which the subject receives a daily supplement of calcium (1,000 mg/day), with repeat of cycle.
# A human subject weighing about 60 kg (132 lbs), suffering from postmenopausal osteoporosis, is treated by a method of this invention. Specifically, for two years, the compound H-Tyr-D-Ala-Gly-Phe-D-Leu-OH ("DADLE") is administered to the subject, in a cyclical regimen, where each cycle consists of an active period of 28 days during which a solution containing 30 mg of DADLE is administered intravenously every day, followed by a non-active period of 28 days during which the patient receives a daily supplement of calcium (1,000 mg/day), with repeat of cycle.
# (§2) A human subject weighing about 60 kg (132 lbs), suffering from postmenopausal osteoporosis, is treated by a method of this invention. Specifically, for two years, an enkephalin of the formula Tyr-D-Cys(S-t-butylthioether)-Gly-Phe-Leu-Thr(O-t-butylether) ("BUBUC") is administered to the subject, in a cyclical regimen, where each cycle consists of an active period of 28 days during which a solution containing 30 mg of BUBUC is intravenously administered each day, followed by a non-active period of 28 days during which the patient receives a daily supplement of calcium (1,000 mg/day), with repeat of cycle.
# as §2, with “years, the” for “years, an”, “enkephalin secretagogue Tyr-Arg^1,” for “enkephalin of the formula Tyr-D-Cys(S-t-butylthioether)-Gly-Phe-Leu-Thr(O-t-butylether) ("BUBUC")”, “of Tyr-Arg” for “of BUBUC”, “the subject” for “the patient”, “cycle. […]” for “cycle.”
# A human subject weighing about 60 kg (132 lbs), suffering from postmenopausal osteoporosis, is treated by a method of this invention. Specifically, each day for five years, the subject is administered 3 tablets, comprised as follows.
# A human subject weighing about 60 kg (132 lbs) is evaluated approximately four years after spontaneous menopause, and is found to have low bone mass. The subject is then treated by a method of this invention to treat osteoporosis. Specifically, once each month for five years, the subject is administered, via intravenous injection, 5 ml of a solution comprised as follows.
# delta opioid receptor = biological target: T1, delta opioid receptor (Cavia porcellus, UniProt A0A286XTF2); assay: inhibition of [3H]DPDPE binding, method of Goldstein et al.; parameters: species or system guinea pig; conditions: radioligand [3H]DPDPE
# T1 construct: A preferred source of delta opioid receptors is guinea pig brain; from tissue; host or cells: guinea pig brain
# T1 sequence (A0A286XTF2 1-366): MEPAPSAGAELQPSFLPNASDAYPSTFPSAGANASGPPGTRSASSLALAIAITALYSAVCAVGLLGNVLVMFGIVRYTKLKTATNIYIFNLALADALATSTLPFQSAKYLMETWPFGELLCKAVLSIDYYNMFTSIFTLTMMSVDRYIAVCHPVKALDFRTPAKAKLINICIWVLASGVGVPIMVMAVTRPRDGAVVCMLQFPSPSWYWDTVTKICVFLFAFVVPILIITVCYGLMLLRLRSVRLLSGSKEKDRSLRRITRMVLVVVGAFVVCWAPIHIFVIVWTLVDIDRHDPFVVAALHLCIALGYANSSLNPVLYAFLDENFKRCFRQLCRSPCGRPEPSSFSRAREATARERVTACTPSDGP
# Excerpt: Affinity for delta opioid receptors can be measured by any of several art-recognized in vitro models. One such model is described by Goldstein et al., and is discussed above. According to this model, a test compound is screened for its ability to inhibit binding of a delta-selective radiolabeled ligand ("delta-selective radiolabeled ligand" refers to a radiolabeled compound that is known to have selective affinity to delta opioid receptors) to delta opioid receptor binding sites. More specifically, this in vitro model compares test samples (comprising a delta-selective radiolabeled ligand ("hot ligand"); the non-radiolabeled equivalent to the "hot ligand" ("cold ligand"); test compound at varying concentrations in each test sample; and delta opiate receptor material) and a control sample (comprising hot ligand; cold ligand; and delta opiate receptor material).
# Following the protocol set forth by Goldstein et al., the samples are assayed for relative radioactivity.
# In assessing a compound's in vitro affinity for delta opioid receptors according to the method described by Goldstein et al., the delta-selectiveradiolabeled ligand ("hot ligand") is preferrably [^3 H]Tyr-D-Pen-Gly-Phe-D-Pen-OH ("[^3 H]-DPDPE"). The preferred "cold ligand" is therefore H-Tyr-D-Pen-Gly-Phe-D-Pen-OH ("cold DPDPE" or "DPDPE"). A preferred source of delta opioid receptors is guinea pig brain. […]
# osteoblast-like cells = assay: enkephalin secretion from osteoblast-like cells, RIA of immunoreactive enkephalin; format: cell-based; conditions: 48 hrs incubation
# Method: In vitro release of enkephalin can be determined using any of several art-recognized in vitro models. One such model is described by Rosen et al., "Regulated Expression of Proenkephalin A in Normal Lymphocytes", 143 J. Immunol. 3703-07 (1989), which is incorporated herein by reference. In this model, "target cells" (preferably bone-derived cells, such as human osteoblast-like cells, rat calvaria cells, rat osteosarcoma cells, etc.) are incubated in tissue culture medium in the presence (test sample) and absence (control sample) of a test agent.
# Osteoblast-like cells are incubated in tissue culture medium in the presence (test samples) and absence of the compound Tyr-Arg for 48 hrs. Peptides are extracted from packed cells by homogenization in 10 volumes of 0.2M HCl, heated to 100° C. for 3 min. and centrifuged at 15,000×g for 30 min. at 4° C. An aliquot of the resulting supernatant is purified on a C18 octadecyl Ampere minicolumn using a non-polar extraction procedure as recommended by the manufacturer of the columns. Another portion of the supernatant is lyophilized and reconstituted in 1.0 ml of 50 mM Tris-HCl (pH 8.0), 2 mM CaCl2 containing 20 µg/ml trypsin L-p-tosylamino-2-phenylethyl chloromethyl ketone. After trypsin digestion (2 hr at […]), samples are heated to 100° C. for 20 min., cooled and then treated with carboxypeptidaseB (0.2 μg/ml) for 1 hr. at 37° C. […]
# [3] = 30 mg intravenously daily (substitutes at comparable levels), 28 days active / 28 days calcium, two years
SMILES,[3H]-thymidine incorporation (proliferation) vs control [1],"density of vertebrae / bone mass [2, 3]",density of vertebrae / bone mass ([2]; Example 8: 5 ml of 30.0 mg/ml solution i.v. once each month for five years),in vitro delta opioid receptor affinity (IC50 ≤1000 times the IC50 of non-radiolabeled DPDPE) (delta opioid receptor),"immunoreactive enkephalin, enkephalin secretion vs control (osteoblast-like cells)"
"CC(C)C[C@H](NC(=O)[C@H](Cc1ccccc1)NC(=O)CNC(=O)[C@@H](CSC(C)(C)C)NC(=O)[C@@H](N)Cc1ccc(O)cc1)C(=O)N[C@H](C(=O)O)[C@@H](C)OC(C)(C)C [BUBUC, Tyr-D-Cys(S-t-butylthioether)-Gly-Phe-Leu-Thr(O-t-butylether)] (H-Y[dC](tBu)GFLT(tBu)-OH)",significantly stimulated proliferation of the osteoblast-like cells,an increase in bone mass,no significant loss in bone mass has occurred,significant in vitro delta opioid receptor affinity,
N=C(N)NCCC[C@H](NC(=O)[C@@H](N)Cc1ccc(O)cc1)C(=O)O [Tyr-Arg],significantly stimulated proliferation of the osteoblast-like cells,an increase in bone mass,,,stimulates enkephalin secretion by osteoblast-like cells
